Assay results taken from US9957262B2, “Opioid analgesic” (NATIONAL UNIVERSITY CORPORATION CHIBA UNIVERSITY, priority 2013, dated 2018).
pKi: −log10 of the molar value. Entries after “also recorded” stand apart in the source; their conditions may differ. Like-named read-outs stand apart in the source and are kept apart here.

How the values were obtained:
ddY strain mice = assay: Mouse tail-flick test, subcutaneous administration; format: in vivo; conditions: for analgesic action in words: s.c., 0.3, 1 and 3 mg/kg; for time after administration at which the analgesic action returned to the vehicle level: any of the doses
Experimental: The results of the test are represented by dose-response curves. […] In addition, a similar test was performed by using a vehicle as a negative control. The analgesic action of each compound was quantified by using a percentage of maximum possible effect (% MPE). % MPE was calculated from the following equation: % MPE=[(Post-drug latency−Pre-drug latency)/(Cut-off time−Pre-drug latency)]×100. The abscissa axis of FIG. 1 indicates a time after the administration of each compound (time after injection (min)).
Six-week-old male ddY strain mice (Japan SLC, Inc.) were used.
MGM-30 and MGM-29 were each dissolved in 25 mM phosphate buffer (pH 5.3 to 5.5). MGM-9, which was a known mitragynine derivative compound, was used as a sample for comparison. MGM-9 was obtained by synthesis according to a method similar to a method described in each of the previous reports (Patent Literatures 2 and 3 and Non Patent Literature 3).
A tail-flick test is a method of evaluating the analgesic effect of a compound, which comprises applying a nociceptive stimulus, for example, a heat stimulus, to the tail of a mouse, and then using as an indicator flight response elicited by the stimulus. Since a mouse respond to the heat stimulus by flicking or moving its tail out of the path of the stimulus, the tail is exposed to a photocell located in a tail-flick analgesia meter (Ugo Basile Tail-flick Unit 7360, Ugo Basile) immediately below the tail. A reaction time is automatically recorded.
Before treatment with the compounds, the vehicle, or physiological saline, a nociceptive threshold was measured three times, and the mean of the reaction time was used as a pre-drug latency for each mouse. The intensity of the heat stimulus was adjusted to such an intensity that mice flicked the tail upward within from 2 seconds to 4 seconds, and a time for heat treatment was set to a maximum stimulation time (cut-off time) of 10 seconds in order to prevent tissue damage. Each of the compounds was subcutaneously administered to mice in a volume of 10 mL/kg with doses 0.3 mg/kg, 1 mg/kg, and 3 mg/kg. A latency after the administration (post-drug latency) was measured 15 minutes, 30 minutes, 45 minutes, 60 minutes, 90 minutes, 120 minutes, and 180 minutes after the administration. The vehicle used for diluting the compounds was used as a control in place of the compounds, and was administered in the same volume. The analgesic action of each compound was quantified through use of a ratio to the maximum drug efficacy, i.e., a percentage of maximum possible effect (hereinafter abbreviated as % MPE) % MPE was calculated from the following equation: % MPE=[(Post-drug latency−Pre-drug latency)/(Cut-off time−Pre-drug latency)]×100. Each value is expressed as the mean of data obtained from six mice±standard error.
Data was expressed as the mean±standard error. Statistical analyses were performed by the two-tailed Student's t test for comparison of two groups and by a one-way analysis of variance followed by a Bonferroni multiple-comparison test for comparison of more than two groups. A P value of <0.05 was considered statistically significant.

human μ-opioid receptors = biological target: T1, human μ-opioid receptors (Homo sapiens, UniProt P35372); assay: Human μ-opioid receptor binding test with [3H]-DAMGO; conditions: for pKi: [3H]-DAMGO 1 nM, CHO-K1 membrane fraction expressing human μ-opioid receptor, read-out: hMOR binding Ki
T1 construct: purchased PerkinElmer; host or cells: CHO-K1 cells (membrane fraction)
Experimental: The binding of each of MGM-30 and MGM-29 to human μ-opioid receptors was evaluated through use of a μ-opioid receptor ligand DAMGO ([D-Ala(2), N-Me-Phe(4), Gly-ol(5)] enkephalin acetate salt). MGM-9 was used as a sample for comparison and evaluated by the same method.
A cell membrane fraction of CHO-K1 cells expressing human μ-opioid receptor gene (manufactured by PerkinElmer) was used as a reagent. The human μ-opioid receptor-expressing cell membrane fraction was diluted to 1 mg/mL or 100 μg/mL with 50 mM Tris-HCl (pH 7.4), and then 1 mL of the dilution was dispensed in each of screw-capped vials, cryopreserved at −80° C., and dissolved before use. DAMGO was prepared at 1 mM with dimethylsulfoxide (hereinafter abbreviated as DMSO), and then dispensed in each of screw-capped vials, cryopreserved at −20° C., and dissolved before use.
A human μ-opioid receptor binding test was performed through use of the human μ-opioid receptor-expressing cell membrane fraction and [^3H]-labeled DAMGO (DAMGO, [TYROSYL-3,5-3H], manufactured by PerkinElmer: hereinafter referred to as [^3H]-DAMGO). Specifically, 10 μL of [^3H]-DAMGO (final concentration: 1 nM) diluted to 50 nM with 50% ethanol was added to 10 μL of a test compound solution obtained by diluting each of MGM-30, MGM-29, and MGM-9 with DMSO so as to have a final concentration of from 0.1 nM to 10,000 nM. 480 μL of the μ-opioid receptor-expressing cell membrane fraction diluted to 40 μg/mL with binding assay buffer (10 mM MgCl2, 50 mM Tris-HCl, 0.2% BSA, pH 7.4) was further added, followed by mixing, and the mixture was then subjected to a reaction at 27° C. for 2 hours. The same tests were performed for measurement of total binding activity by using 10 μL of DMSO in place of the test compound, and for measurement of μ-opioid receptor non-specific binding activity by using 10 μL of 1 mM DAMGO (final concentration: 20 μM) in place of the test compound. The binding reaction was terminated by suction filtration with a GF/C filter (manufactured by Whatman) preimmersed in 0.5% polyethylene imine. The filter was washed four times with 2.5 mL of a washing buffer (10 mM Tris-HCl, pH 7.4), and radioactivity remaining in the filter was measured. Then, a dissociation constant (Kd value) of [^3H]-DAMGO for the μ-opioid receptor-expressing cell membrane fraction was calculated by Scatchard plot analysis.
IC50 value was calculated, which is a test compound concentration at which the specific binding of [^3H]-DAMGO to human μ-opioid receptors was inhibited by 50%, by using analysis software XLfit™ ([…]). Then, an inhibition constant (Ki value) was calculated using the following equation: Ki=IC50/(1+S), S=(Concentration of [^3H]-DAMGO/Kd of [^3H]-DAMGO).

[1] = biological target: hMOR (human μ-opioid receptors) (Homo sapiens, UniProt P35372); assay: hMOR agonist activity (% DAMGO); format: biochemical
[2] = Metabolic stability test, human liver microsome; format: in vitro ADME; conditions: for Metabolic stability Ms human (% remaining): human liver microsomal fraction, 37° C., 30 minutes, NADPH; for metabolic stability compared to formula (III), in words: in vitro metabolic stability test using liver microsome
Text: (§1) Liver microsome was used and subjected to a reaction with MGM-30 or MGM-29 for a predetermined time. A sample subjected to the reaction was compared to a sample not subjected to the reaction to calculate a residual ratio for evaluating a degree of a compound that was metabolized in liver. MGM-9 was used as a sample for comparison and evaluated by the same method.
(§2) Commercially available pooled human liver microsome (manufactured by Xenotech) was used as human liver microsome. Pooled rat liver microsome prepared from rat liver by a method known per se was used as rat liver microsome.
(§3) A metabolic stability test was specifically performed as described below. First, a test compound was subjected to a reaction (oxidative reaction) at 37° C. for 0 minutes or 30 minutes in 0.2 mL of a buffer (50 mmol/L tris-HCl pH 7.4, 150 mmol/L potassium chloride, 10 mmol/L magnesium chloride) containing 0.5 mg protein/mL of liver microsome in the presence of 1 mmol/L nicotinamide adenine dinucleotide phosphate (hereinafter abbreviated as NADPH). After the reaction, 50 μL of the reaction liquid was added to 100 μL of a solution of methanol/acetonitrile=1/1 (volume/volume: hereinafter abbreviated as v/v), followed by mixing and centrifugation at 3,000 rpm for 15 minutes. The test compound in the centrifugation supernatant was quantified by liquid chromatograph/tandem mass spectrometry (LC/MS/MS). Then, the amount of the compound at the start of the reaction was defined as 100%, and the residual ratio of the test compound after the reaction was calculated. A hydrolysis reaction was performed in the absence of NADPH, and a glucuronidation reaction was performed in the presence of 5 mM UDP-glucuronic acid in place of NADPH. Then, the same operation was performed.

[3] = Metabolic stability test, rat liver microsome; format: in vitro ADME; conditions: rat liver microsomal fraction, 37° C., 30 minutes, NADPH
Text: as §1, §2, §3

opioid receptors = conditions: guinea pig small intestine, via opioid receptors; cited from earlier work
mice = conditions: subcutaneous or oral administration, tail-flick test or hot-plate test; cited from earlier work
[4] = 3 mg/kg s.c., 15 minutes after administration
[5] = 3 mg/kg s.c., 15 minutes to 60 minutes after administration

Sequence of hMOR (human μ-opioid receptors) (P35372 whole entry): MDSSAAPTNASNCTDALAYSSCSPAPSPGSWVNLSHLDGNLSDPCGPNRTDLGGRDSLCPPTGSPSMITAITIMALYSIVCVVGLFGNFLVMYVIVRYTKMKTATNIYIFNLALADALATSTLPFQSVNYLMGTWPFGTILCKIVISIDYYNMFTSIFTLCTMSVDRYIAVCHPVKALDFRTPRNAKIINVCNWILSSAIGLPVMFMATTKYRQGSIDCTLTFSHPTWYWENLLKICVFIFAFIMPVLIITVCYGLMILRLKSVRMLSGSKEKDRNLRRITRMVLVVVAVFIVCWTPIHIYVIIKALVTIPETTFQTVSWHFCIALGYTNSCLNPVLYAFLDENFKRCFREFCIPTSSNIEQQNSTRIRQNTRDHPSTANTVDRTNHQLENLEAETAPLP
T1 sequence (P35372 whole entry): as above

Compound | analgesic action (% MPE) (ddY strain mice; [4]) | analgesic action in words (ddY strain mice) | pKi (human μ-opioid receptors) | hMOR agonist (% DAMGO) [1] | Metabolic stability Ms human (% remaining) [2] | metabolic stability compared to formula (III), in words [2] | Metabolic stability Ms rat (% remaining) [3] | analgesic action (% MPE) (ddY strain mice; [5]) | time after administration at which the maximum analgesic action was expressed (ddY strain mice; s.c.) | time after administration at which the analgesic action returned to the vehicle level (ddY strain mice; s.c.) | also measured
CC[C@@H]1CN2CC[C@@]34OCCC[C@@]3(Nc3cccc(OC)c34)[C@@H]2C[C@@H]1/C(=C\OC)C(=O)OC [MGM-29] | about 20% | limited analgesic action; also recorded: dose-dependent analgesic action | 8.31 | 45.9 % DAMGO | 78 % remaining | remarkably high metabolic stability | 36 % remaining | – | – | – | analgesic action in words (ddY strain mice; listed as formula (II)): exhibited an analgesic action, although the action was determinative; binding affinity for human μ-opioid receptors relative to MGM-9 (formula (III)), in words (human μ-opioid receptors): comparable to that of MGM-9; binding affinity for human μ-opioid receptors relative to MGM-9 (formula (III)), in words (human μ-opioid receptors; listed as formula (II)): comparable to that of the compound represented by the formula (III)
CC[C@@H]1CN2CC[C@@]34OCCO[C@@]3(Nc3ccc(F)c(OC)c34)[C@@H]2C[C@@H]1/C(=C\OC)C(=O)OC [MGM-9, reference compound] | 100% | dose-dependent analgesic action | 8.46 | 49.0 % DAMGO | 57 % remaining | – | 3 % remaining | 100% | 15 min | One hundred and eighty | analgesic action (% MPE) (ddY strain mice; 1 mg/kg s.c., 15 minutes after administration): 100%; time after administration until which the analgesic action was sustained (ddY strain mice; 3 mg/kg s.c.): 120 min
CC[C@@H]1CN2CC[C@@]3(O)C(=Nc4cccc(OC)c43)[C@@H]2C[C@@H]1/C(=C\OC)C(=O)OC [7-hydroxymitragynine] | – | – | – | – | – | – | – | – | – | – | effect on contraction induced by electrical stimulation (opioid receptors): inhibited contraction induced by electrical stimulation; antinociceptive action (mice): remarkable antinociceptive action
CC[C@@H]1CN2CC[C@@]34OCC[C@@]3(Nc3cccc(OC)c34)[C@@H]2C[C@@H]1/C(=C\OC)C(=O)OC [MGM-30] | – | dose-dependent analgesic action; also recorded: most potent analgesic action and had the longest duration of action | 9.92 | 46.2 % DAMGO | 92 % remaining | remarkably high metabolic stability | 43 % remaining | 100% | 15 min | 180 min | analgesic action (% MPE) (ddY strain mice; 0.3 mg/kg s.c., 15 minutes to 30 minutes after administration): about 95%; time after administration until which the analgesic action was sustained (ddY strain mice; 1 mg/kg and 3 mg/kg s.c.): 90 min; analgesic action (% MPE) (ddY strain mice; 1 mg/kg s.c., 15 minutes to 60 minutes after administration): 100%; analgesic action relative to the compound of formula (III) (MGM-9) (ddY strain mice; s.c.): approximately 3 fold; analgesic action in words (ddY strain mice; listed as formula (I)): potent analgesic action in a dose-dependent manner; binding affinity for human μ-opioid receptors relative to MGM-9 (formula (III)) (human μ-opioid receptors): about 30 fold
